Consider 20 molecules from ChEMBL document CHEMBL4043152, “Design, synthesis, and cytotoxic activity of novel 7-substituted camptothecin derivatives incorporating piperazinyl-sulfonylamidine moieties” (Bioorg Med Chem Lett, 2017).

What all share (format): functional, cell-based
One assay relates to MCF7. The assay can be described thus: Cytotoxicity against human MCF7 cells after 72 hrs by SRB assay. Conditions: MCF7, 72 h. On the technique in general: In SRB staining, fixed cells bind dye roughly in proportion to their protein.
Assay [1] can be described thus: Cytotoxicity against human KBVIN cells after 72 hrs by SRB assay.
A further assay deals with KB. The assay can be described thus: Cytotoxicity against human KB cells after 72 hrs by SRB assay.
Another assay concerns A549. The experiment in a line: Cytotoxicity against human A549 cells after 72 hrs by SRB assay. The settings on record: A549, 72 h.
A further assay relates to MDA-MB-231. The assay can be described thus: Cytotoxicity against human MDA-MB-231 cells after 72 hrs by SRB assay. Conditions: MDA-MB-231, 72 h.

A value given as a limit tells only on which side of the number the result lay.

Consider `CC[C@@]1(O)C(=O)OCc2c1cc1n(c2=O)Cc2c-1nc1ccccc1c2CN1CCN(/C(Cc2ccc(OC)cc2)=N\S(=O)(=O)c2ccc([N+](=O)[O-])cc2)CC1`, for which the half-maximal inhibitory concentration (IC50) in the assay with MCF7 turned out to be 8.36 µM; in assay [1], 970 nM; with KB it was 1060 nM; with A549, 2930 nM; with MDA-MB-231, 9.75 µM.
In the case of `CC[C@@]1(O)C(=O)OCc2c1cc1n(c2=O)Cc2c-1nc1ccccc1c2CN1CCN(/C(Cc2ccc(F)cc2)=N\S(=O)(=O)c2ccc(C)cc2)CC1`, the half-inhibitory concentration (IC50) in the assay with MCF7 was 7.04 µM; in assay [1] it was 2770 nM; in the assay with KB, 1070 nM; in the assay on A549, 1770 nM; in the assay with MDA-MB-231, 6.01 µM.
Regarding `CC[C@@]1(O)C(=O)OCc2c1cc1n(c2=O)Cc2c-1nc1ccccc1c2CN1CCN(/C(Cc2ccc(F)cc2)=N\S(=O)(=O)c2ccc([N+](=O)[O-])cc2)CC1`, the half-inhibitory concentration (IC50) in the assay on MCF7 is 2.18 µM; in assay [1] it was 850 nM; in the assay on KB, 4430 nM; with A549, 630 nM; with MDA-MB-231, 3.54 µM.
On to `CCc1c2c(nc3ccc(OC(=O)N4CCC(N5CCCCC5)CC4)cc13)-c1cc3c(c(=O)n1C2)COC(=O)[C@]3(O)CC` [IRINOTECAN], for which the IC50 in the assay on MCF7 was 11.3 µM; in assay [1], > 20000 nM; with A549, 8310 nM.
Turning to `CC[C@@]1(O)C(=O)OCc2c1cc1n(c2=O)Cc2c-1nc1ccccc1c2CN1CCN(/C(Cc2ccc(F)cc2)=N\S(=O)(=O)c2ccc(F)cc2)CC1`, the 50% inhibitory concentration (IC50) worked out at 8.85 µM in the assay on MCF7; 1810 nM in assay [1]; 10100 nM with KB; 4310 nM in the assay with A549; 10.2 µM in the assay with MDA-MB-231.
Turning to `CC[C@@]1(O)C(=O)OCc2c1cc1n(c2=O)Cc2c-1nc1ccccc1c2CN1CCN(/C(Cc2ccccc2)=N\S(=O)(=O)c2ccc(Cl)cc2)CC1`, the half-inhibitory concentration (IC50) in the assay with MCF7 was found to be 3.19 µM; in assay [1] it was 1550 nM; with KB it was 740 nM; in the assay on A549 it was 640 nM; with MDA-MB-231, 5.01 µM.
In the same order, the values of `CC[C@@]1(O)C(=O)OCc2c1cc1n(c2=O)Cc2c-1nc1ccccc1c2CN1CCN(/C(Cc2ccc(F)cc2)=N\S(=O)(=O)c2cccnc2)CC1` are 6.05 µM, 5820 nM, 6760 nM, 2590 nM and 6.31 µM.
`CC[C@@]1(O)C(=O)OCc2c1cc1n(c2=O)Cc2c-1nc1ccccc1c2CN1CCN(/C(Cc2ccc(F)cc2)=N\S(=O)(=O)c2ccc3ccccc3c2)CC1`: the half-inhibitory concentration (IC50) in the assay with MCF7 was determined as 4.74 µM; in assay [1], 380 nM; in the assay on KB, 4720 nM; in the assay with A549, 600 nM; with MDA-MB-231, 5.41 µM.
With `CC[C@@]1(O)C(=O)OCc2c1cc1n(c2=O)Cc2c-1nc1ccccc1c2CN1CCN(/C(Cc2ccccc2)=N\S(=O)(=O)c2cccs2)CC1`, the 50% inhibitory concentration (IC50) was 1.25 µM in the assay on MCF7; 1270 nM in assay [1]; 590 nM with KB; 650 nM with A549; 3.99 µM in the assay with MDA-MB-231.
Turning to `CC[C@@]1(O)C(=O)OCc2c1cc1n(c2=O)Cc2cc3c(CN(C)C)c(O)ccc3nc2-1` [TOPOTECAN], the IC50 in the assay with MCF7 was 0.28 µM; in assay [1] it was 660 nM; with A549, 110 nM.
`CC[C@@]1(O)C(=O)OCc2c1cc1n(c2=O)Cc2c-1nc1ccccc1c2CN1CCN(/C(Cc2ccc(F)cc2)=N\S(=O)(=O)CC)CC1`: the IC50 was found to be 1.6 µM with MCF7; 970 nM in assay [1]; 330 nM with KB; 500 nM in the assay with A549; 2.51 µM with MDA-MB-231.
For the molecule `CC[C@@]1(O)C(=O)OCc2c1cc1n(c2=O)Cc2c-1nc1ccccc1c2CN1CCN(/C(Cc2ccc(OC)cc2)=N\S(=O)(=O)c2ccc3ccccc3c2)CC1`, the 50% inhibitory concentration (IC50) amounted to 6.56 µM in the assay with MCF7; 3660 nM in assay [1]; 840 nM in the assay with KB; 740 nM in the assay on A549; 9.36 µM in the assay on MDA-MB-231.
`CC[C@@]1(O)C(=O)OCc2c1cc1n(c2=O)Cc2c-1nc1ccccc1c2CN1CCN(/C(Cc2ccccc2)=N\S(=O)(=O)CC)CC1`: the IC50 in the assay on MCF7 worked out at 1.9 µM; in assay [1], 4290 nM; in the assay on KB, 490 nM; in the assay on A549, 730 nM; in the assay with MDA-MB-231 it was 3.5 µM.
In the same order, the values of `CC[C@@]1(O)C(=O)OCc2c1cc1n(c2=O)Cc2c-1nc1ccccc1c2CN1CCN(/C(Cc2ccc(OC)cc2)=N\S(=O)(=O)c2cccnc2)CC1` are 4.22 µM, 2380 nM, 880 nM, 800 nM and 4.96 µM.
Turning to `CC[C@@]1(O)C(=O)OCc2c1cc1n(c2=O)Cc2c-1nc1ccccc1c2CN1CCN(/C(Cc2ccc(OC)cc2)=N\S(=O)(=O)c2ccc(C)cc2)CC1`, the half-inhibitory concentration (IC50) in the assay with MCF7 was determined as 5.67 µM; in assay [1] it was 3080 nM; with KB it was 830 nM; in the assay with A549, 740 nM; with MDA-MB-231, 5.84 µM.
In the same order, the values of `CC[C@@]1(O)C(=O)OCc2c1cc1n(c2=O)Cc2c-1nc1ccccc1c2CN1CCN(/C(Cc2ccccc2)=N\S(=O)(=O)c2ccccc2)CC1` are 2.25 µM, 1770 nM, 630 nM, 650 nM and 4.41 µM.
Turning to `CC[C@@]1(O)C(=O)OCc2c1cc1n(c2=O)Cc2c-1nc1ccccc1c2CN1CCN(/C(Cc2ccc(OC)cc2)=N\S(=O)(=O)CC)CC1`, the IC50 in the assay with MCF7 is 2.9 µM; in assay [1], 2730 nM; with KB, 470 nM; in the assay with A549, 710 nM; with MDA-MB-231 it was 3.81 µM.
In the case of `CC[C@@]1(O)C(=O)OCc2c1cc1n(c2=O)Cc2c-1nc1ccccc1c2CN1CCN(/C(Cc2ccccc2)=N\S(=O)(=O)c2ccc3ccccc3c2)CC1`, the IC50 with MCF7 amounted to 9.37 µM; in assay [1] it was 890 nM; in the assay on KB it was 2110 nM; in the assay on A549 it was 3150 nM; in the assay with MDA-MB-231 it was 11.3 µM.
For `CC[C@@]1(O)C(=O)OCc2c1cc1n(c2=O)Cc2c-1nc1ccccc1c2CN1CCN(/C(Cc2ccccc2)=N\S(C)(=O)=O)CC1`, the IC50 was determined as 1.59 µM with MCF7; 3820 nM in assay [1]; 130 nM with KB; 650 nM in the assay on A549; 1.57 µM in the assay on MDA-MB-231.
In the case of `CC[C@@]1(O)C(=O)OCc2c1cc1n(c2=O)Cc2c-1nc1ccccc1c2CN1CCN(/C(Cc2ccccc2)=N\S(=O)(=O)c2cccnc2)CC1`, the IC50 was 3.4 µM in the assay on MCF7; 2090 nM in assay [1]; 720 nM in the assay on KB; 760 nM in the assay with A549; 3.84 µM in the assay on MDA-MB-231.

A word on the IC50: it is the point on the concentration scale where inhibition reaches its midpoint. Read a low IC50 as higher potency.
